# Where “and” joins values, the source holds several entries; their conditions need not be identical. Equal entries are not always repeated. Where two headings read alike, the source gives them in different places.
# Experiments:
# [1] = test system: bovine brain capillary endothelial cells; experiment: Transmonolayer (transendothelial cell) electrical resistance in the in vitro BBB model; details: for activity at 0.2 µM / activity at 0.01 µM / activity at 0.03 µM / activity at 0.1 µM: Bos taurus, Endothelial cell, read-out: Resistance (% of control); for effect of phosphodiesterase inhibitors on resistance: FIG. 7, Rolipram or RO-20-1724 17.5 μM, by 30 minutes, no other cyclic AMP elevating agents
# Procedure: The degree of tightness of tight junctions can be also assessed by transcellular electrical resistance measurements. For transendothelial cell resistance measurements, cells were grown on a porous solid support, e.g., a filter or membrane attached to a holding device in order adequately to suspend the cellular monolayer, such as the Costar Transwell apparatus or the ICN Cellogen. […] Cells were maintained in a growth medium or physiological saline, and calomel electrodes on each of the endothelial cells are connected by a saturated KCl - 3% agar bridge. Current is passed between two Ag--AgCl electrodes and the voltage measured with a Keithly multimeter. Resistance is calculated from the change in voltage across the monolayer induced when a short current pulse (10-100 μamp) is applied. The resistance of the filter or membrane alone is subtracted. The resistance, multiplied by the surface area of the filter or membrane, yields the resistance in ohms-cm^2.
# Bovine brain capillary endothelial cells were grown on polycarbonate filters in a conditioned growth medium containing either 5% or 10% PDHS. In controls, the growth medium contained 5% PDHS (.quadrature.) or 10% PDHS. […]
# Bovine brain endothelial cells were dissociated and plated on tissue culture dishes in 50% MEM/FCS - 50% ADCM. […]
# Bovine brain microvascular endothelial cells were isolated and grown on permeable filters in the BBB in vitro model of the invention. Cells were maintained in astrocyte-derived conditioned medium, but were not treated with agents that elevate cyclic AMP levels in such cells.
# Resistance was then measured at various times.
# The medium containing these cyclic AMP elevating agents was removed, and the cells were washed with fresh growth medium.
# brain endothelial cells = experiment: Leukocyte binding to cultures of blood brain barrier endothelial cells; type: cell-based, bovine or human; details: Table 14; Jurkat T-cell; + TNFα; two values per cell
# Procedure: When used to treat lymphocytes, the anti-β-1 hybridoma supernatant was used at a 1:2 dilution. The anti-α-4 antibody was purified by the manufacturer, and used at a 5 μg/ml concentration. The anti-β-2 was purified by the manufacturer, and used at 5 μg/ml. For treatment of lymphocytes, the lymphocytes were mixed with the above concentrations of antibody, and allowed to incubate on ice for a about 30 minutes prior to use. The cells were washed to remove unbound antibody, and resuspended in RPMI to a typical concentration of 10^7 cells/ml.
# Bovine or human brain endothelial cells were maintained in accordance with the blood brain barrier model as described in the present specification. […]
# In this manner, the endothelial cells were exposed to the agent on their ablumenal surface, as would be the typical situation during an inflammatory reaction in the brain. Immediately before the assay, the electrical resistance of the cultures was measured and the filters (supporting the endothelial cells) were washed at room temperature by dipping in three separate vats of D-MEM with 1% FBS and 20 mM Hepes (200 mls. each). […]
# In the second method, the leukocytes were prelabeled with a radioactive tracer and the degree of binding was quantified by measuring the amount of radioactivity associated with the entire endothelial surface on the culture filter. […]
# blood-brain barrier [2] = experiment: In vivo tracer experiment: brain uptake of ^3 H-sucrose and ^125 I-BSA after i.v. injection; set-up: species or system mouse; details: Example 11 text
# Procedure: The test compound was delivered to a restrained, unanesthetized mouse (30-35 g) via the tail vein. […] Fifteen or sixty minutes after the injection, the animal, anesthetized with 2% Avertin, was perfused via venipuncture with phosphate buffered saline followed by fixative. The brain was removed immediately, the medulla, pons and hypothalamus excised and the remaining tissue homogenized by passsage through a 3 cc needle into a preweighed scintillation vial containing 1.5 ml Soluene (Packard). The vial was weighed to determine wet tissue weight. Ten ml of Inst-Gel (Packard) was added to each sample after overnight incubation at 75° C. The samples were counted for DPM by liquid scintillation spectrometry. Values are expressed as DPM/gm tissue. A minimum of four animals/group were used for each experiment. Data are expressed as the mean fold-increase which is derived by dividing the treatment value by the control value. Numbers in parenthesis represent the number of experiments carried out for the particular condition.
# [3] = Behavioral assay: opioid-induced analgesia, hot plate; type: in vivo, mouse; details: Table 9, enkephalin 20 mg/kg
# Procedure: Morphine and the naturally occurring opioid peptides, endorphin and enkephalin, bind to μ opioid receptors in the brain and suppress the sensation of pain. […] Mice are placed on a surface uniformly heated to 55° C. The time it takes for the mouse to respond to the heat stimulus by licking its front or hind paws is measured. […] The latency is expressed as % analgesia. [formula] The purpose of these experiments is to test the ability of putative BBB openers to shift the morphine dose response curve to lower doses and thus have analgesic activity when delivered peripherally.
# blood-brain barrier [4] = details: in vivo; cited from earlier work
# blood-brain barrier [5] = experiment: Brain uptake of ^3 H-sucrose and ^125 I-BSA after intracarotid infusion; type: in vivo
# Procedure: Staurosporine was administered by intracarotid infusion. The transport of ^3 H-sucrose and ^125 I-BSA was then determined. The data in Table 7 represent the amount of radioactivity remaining in the brain after infusion and washout. An average of 3-4 animals was used in each category.
# bovine endothelial cells [6] = experiment: Transport across high resistance monolayers of bovine endothelial cells on filters; type: in vitro ADME; details: FIG. 3; compared to cell-free filters
# Text: Still another means for assessing the tightness of junctions among endothelial cells in the blood-brain model of the invention is to compare the transport of a hydrophilic compound, e.g., sucrose, and a hydrophobic compound of similar size, e.g., chlorambucil, across filters with and without monolayered endothelial cells. When the transmonoloayer resistance is high, the transport of sucrose should be low compared to that of chlorambucil (or other hydrophobic compounds of similar size). Alternatively, when the resistance is high, the transport of sucrose should be much less (e.g., 50-fold or more) than across cell-free filters.
# bovine endothelial cells [7] = details: leaky tight junctions; cited from earlier work
# [8] = test system: Type III cyclic GMP-noninhibitable phosphodiesterase; experiment: Inhibition of cyclic AMP phosphodiesterase of brain microvascular endothelial cells
# [9] = Table 7, Experiment 1, intracarotid infusion, 3-4 animals
compound,measurement,setting,value
COC(=O)[C@@]1(O)C[C@H]2O[C@]1(C)n1c3ccccc3c3c4c(c5c6ccccc6n2c5c31)C(=O)NC4 [K252a],reversibility of effect of protein kinase inhibitors,[1],reversible
same,effect of protein kinase inhibitors on resistance,[1]; 10-200 nM,markedly reduce the resistance
same,activity at 0.2 µM,[1]; 1 h,79%
same,activity at 0.2 µM,[1]; 2.5 h,25%
same,activity at 0.2 µM,[1]; 24 h,24%
CCCOc1ccccc1-c1nc2nn[nH]c2c(=O)[nH]1 [zaprinast],effect of phosphodiesterase inhibitors on resistance,[1],ineffective
TNFα,"lymphocyte binding, Count per Minute",brain endothelial cells,1430 Count per Minute and 1150 Count per Minute
"C[C@H](Cc1ccccc1)Nc1ncnc2c1ncn2[C@@H]1O[C@H](CO)[C@@H](O)[C@H]1O [R-PIA, N^6 -(phenylisopropyl)-adenosine]",increase of uptake by brain of small (sucrose) and large (BSA) molecules,blood-brain barrier [2],≤ 300%
"Nc1ncnc2c1nc(Sc1ccc(Cl)cc1)n2[C@@H]1O[C@@H]2COP(=O)(O)O[C@H]2[C@H]1O [cyclic AMP analogue, 8-(4-chlorophenylthio) cyclic AMP]",effect on transmonolayer electrical resistance,"[1]; Example 1, FIG. 1, 250 μM, 5% PDHS",greatly increased transmonolayer electrical resistance
"C=C[C@@]1(C)CC(=O)[C@]2(O)[C@@]3(C)[C@@H](O)CCC(C)(C)[C@@H]3[C@H](O)[C@H](OC(C)=O)[C@@]2(C)O1 [Forskolin, forskolin]",enhancement of transmonolayer electrical resistance,[1]; brain capillary endothelial cells,over 8 fold
CC(C)C[C@H](NC(=O)[C@H](Cc1ccccc1)NC(=O)CNC(=O)CNC(=O)[C@@H](N)Cc1ccc(O)cc1)C(=O)O [Enkephalin],Percent Analgesia,[3]; Experiment 1,2.8%
same,Percent Analgesia,[3]; Experiment 2,6.4%
same,penetration into the brain / BBB crossing,blood-brain barrier [4],does not penetrate significantly into the brain
Cc1[nH]c(=O)c(C#N)cc1-c1ccncc1 [milrinone],effect of phosphodiesterase inhibitors on resistance,[1],ineffective
CN[C@@H]1C[C@H]2O[C@@](C)([C@@H]1OC)n1c3ccccc3c3c4c(c5c6ccccc6n2c5c31)C(=O)NC4 [Staurosporine],activity at 0.01 µM,[1]; 1 h,108%
same,activity at 0.03 µM,[1]; 1 h,64%
same,activity at 0.1 µM,[1]; 1 h,5.5%
same,activity at 0.01 µM,[1]; 2.5 h,20%
same,activity at 0.03 µM,[1]; 2.5 h,7.7%
same,activity at 0.1 µM,[1]; 2.5 h,0%
same,activity at 0.01 µM,[1]; 24 h,5.2%
same,activity at 0.03 µM,[1]; 24 h,2.3%
same,activity at 0.1 µM,[1]; 24 h,0%
same,"radioactivity remaining in the brain, ^3 H-Sucrose",blood-brain barrier [5],8.7 × 10^3 DPM
same,"radioactivity remaining in the brain, ^3 H-Sucrose",blood-brain barrier [5]; [9],24.3 × 10^3 DPM
same,"radioactivity remaining in the brain, ^125 I-BSA",blood-brain barrier [5]; [9],835 DPM
same,"radioactivity remaining in the brain, ^125 I-BSA","blood-brain barrier [5]; Table 7, Experiment 2, intracarotid infusion, 3-4 animals",520 DPM
same,effect on entry of tracers into the brain,blood-brain barrier [5]; intracarotid infusion,enhanced entry into the brain of both small (sucrose) and large (BSA) molecules
"OC[C@H]1O[C@@H](n2cnc3c(NC4CCCC4)ncnc32)[C@H](O)[C@@H]1O [CPA, cyclopentyladenosine]",increase of uptake by brain of small (sucrose) and large (BSA) molecules,blood-brain barrier [2],≤ 300%
OC[C@H]1O[C@@](CO)(O[C@H]2O[C@H](CO)[C@@H](O)[C@H](O)[C@H]2O)[C@@H](O)[C@@H]1O [sucrose],transport across filters with cells,bovine endothelial cells [6],almost entirely prevented from leaking between the cells
same,"difference in the rate of sucrose across filters with and without cells, previous models",bovine endothelial cells [7],3 to 5 fold
COc1ccc(C2CNC(=O)C2)cc1OC1CCCC1 (stereo not drawn) [Rolipram],effect of phosphodiesterase inhibitors on resistance,[1],substantially higher
same,inhibition of phosphodiesterase,[8],inhibited
CCCCOc1cc(CC2CNC(=O)N2)ccc1OC (stereo not drawn) [RO-20-1724],effect of phosphodiesterase inhibitors on resistance,[1],substantially higher
same,inhibition of phosphodiesterase,[8],inhibited
N[C@@H](Cc1ccc(O)c(O)c1)C(=O)O [L-DOPA],penetration into the brain / BBB crossing,blood-brain barrier [4],can cross the BBB
